We go through 3 compounds from patent US20250049032A1, “ETHYLENE SIGNALING ACTIVATOR MODULATES ROOT SYSTEM ARCHITECTURE” (Salk Institute for Biological Studies, priority 2021, published 2025).

The structures appear in SMILES notation.

For assay [1], the system named is root cells of etiolated seedlings. The assay can be described thus: Root cell size by confocal microscopy (PI staining). The class given is in vivo, Arabidopsis thaliana. The note with it: 4-day-old etiolated seedlings, 2.5 μM MBZ or 10 μM ACC. An excerpt: (§1) LaserMicroscopy. A Zeiss 710 confocal microscope with 20×, 40×, and 63× objectives were used to detect GFP and propidium iodide (PI) fluorescence. A Keyence BZ-X810 microscope with a 20× objective was used to detect bright field images and GFP fluorescence in FIG. 3B, FIG. 8B right panel, FIG. 9C, FIG. 9F.

For assay [2], the system named is etiolated Arabidopsis seedlings. The assay can be described thus: Triple response of etiolated seedlings. It is filed as in vivo, Arabidopsis thaliana. The note with it: 4-days-old etiolated etr1-3 seedlings, 2.5 μM MBZ or 10 μM ACC.
The next assay relates to EIN3. Put plainly: 35S-EIN3-GFP protein level in ein3eil1 background. It is filed as in vivo, Arabidopsis thaliana. The note with it: 2 hours, 10 μM MBZ or 50 μM ACC.
Description: as §1

The subject of assay [3] is Arabidopsis thaliana roots.
Assay [4] has as its system Ethylene Response Factor1 (ERF1). Put plainly: Expression of ethylene response marker gene ERF1. The class given is in vivo, Arabidopsis thaliana. The note with it: root tissue, 2 hours, 10 μM MBZ or ACC (50 μM per legend).
Assay [5] has as its system etiolated Col-0 seedlings. Put plainly: Measurement of ethylene production by GC-MS. The note with it: 3-days-old etiolated Col-0 seedlings, 10 μM. The class given is in vivo, Arabidopsis thaliana. How it is done: Measurement of ethylene production. […] These vials were incubated at 22° C. for 3 days under dark environment. 500-1000 μL sample of the headspace gas was sampled with an autosampler (TriPlus RSH, Thermo Scientific) and injected into a gas chromatograph (Trace 1310 GC, Thermo Scientific) that was equipped with a HP-PLOTQ column ([…], 320 μm, 20 μm) and a mass spectrometer (TSQ8000 Evo MS, Thermo Scientific), scanning from 25-27.5 m/z. Separations were carried out at 35° C. using He as the carrier gas. The area of the ethylene peak (RT: 4 min) was integrated using Thermo Xcalibur Qual Browser. A calibration curve was generated by varying the injection volume (100 μL, 250 μL, 500 μL, and 1000 μL) of a 10 ppm ethylene standard (in nitrogen), and sample results are expressed as concentrations calculated from linear regression of calibration samples.

In the next assay the test system is microtubules (TUB6-GFP). Put plainly: Microtubule orientation in root tips of TUB6-GFP seedlings. The note with it: 1 μM IAA or 50 μM MBZ. The class given is in vivo, Arabidopsis thaliana.
Description: as §1

Another assay has as its system Arabidopsis roots. The note with it: 4 hours of ethylene treatment; cited from earlier work.
The mark [6] stands for this setting: 8-day-old seedlings, 1 μM MBZ or 10 nM IAA plates.

Take `NC1(C(=O)O)CC1` [ACC, 1-aminocy-clopropane-1-carboxylic acid]: the mature cell size entry in assay [1] is reported as “reduced”. Further, the “triple response in etr1-3” value in assay [2] is “completely insensitive”. For the same compound, the 35S-EIN3-GFP protein level entry in the assay on EIN3 was “dramatically induced”. Also, the “effect on root angle” value in assay [3] (ACC at certain concentrations (0.1-10 μM range)) is given as “weak but distinct effect”. Also, the “transcript level of ERF” value in assay [4] was “strongly induced”. Also, the ethylene production entry in assay [5] was “dramatically induced”.
As to `O=C(O)Cc1c[nH]c2ccccc12` [IAA], in assay [3] (setting [6]), the root elongation result is given as “inhibited” and the root hair growth result is on record as “enhanced”. In addition, the “orientation of tubulin in roots within 1 h” value in the assay on microtubules (TUB6-GFP) is “significantly changed”.
Turning to `C=C` [ethylene], the “number of DEGs upon ethylene treatment (published data)” value in the assay with Arabidopsis roots is given as 1397 genes.
